Results as given in patent US8697662B2, “Methods for treating Kaposi sarcoma” (PTC Therapeutics, Inc., priority 2009, dated 2014).
Marks after values point to notes of the source that are not given here.

Tests used:
[1] = Oral pharmacokinetics / toxicokinetics in rats; assay type: in vivo, Sprague Dawley rats
Experimental: (§1) The pharmacokinetic evaluations in mice were adjuncts to the primary pharmacodynamic xenograft studies. The evaluations in rats included toxicokinetic assessments in single-dose, 7-day, and 28-day toxicology studies as well as a mass-balance study after a single oral dose of ^14C-Compound #10. The evaluations in dogs included toxicokinetic assessments in 7-day and 28-day toxicology studies. In the studies performed, rodents were dosed once daily with Compound #10 formulated in vehicle and administered via oral gavage.

[2] = tested on: HT1080 cells; test: Cell cycle analysis by propidium iodide flow cytometry in HT1080 cells (S-phase accumulation, Table 24); assay type: cell-based, human; conditions: HT1080, normoxic, 18 hours
Experimental: Experimental Design. […] After treatment, cells were trypsinized, and stained with propidium iodide (PI) dye to measure DNA content of individual cells by flow cytometry. Output comprised histograms showing relative DNA content in 10,000 cells.
While compounds which cause greater than 20% of the cells to accumulate in S-phase at 100 nM are considered active, a larger percentage of cells may be accumulated in S-phase at lower doses depending on the Compound, as shown in FIG. 12 for example.

[3] = tested on: VEGF-A; test: Patients with Kaposi Sarcoma: circulating serum and plasma VEGF-A levels; assay type: in vivo, human
Text: Assaying secreted cytokines characteristic for KS: To measure the effect of a Compound on KS, serum and plasma may be evaluated for levels of VEGF, VEGF-C, VEGF-D, VEGF-R1, VEGF-R2, VEGF165b, P1GF, IL-6, IL-8 and IL-10 at baseline (pre-dose of a Compound on Day 1) and mid-cycle (e.g., Day 15) of cycle 1, on Day 1 of all subsequent cycles, and at the end of the study. Depending on the results of these assays, other potential serum markers characteristic for KS may also be measured.

[4] = 28-day oral toxicity study in dogs with 15-day recovery
Experimental: The L23 vehicle was used. […] All studies in the toxicology program were conducted according to GLP regulations.

[5] = Single-dose oral toxicity study in rats; conditions: Sprague Dawley, rat, in vivo, 1 day
Experimental: (§2) A battery of genotoxicity studies was also performed. […] The L23 vehicle was used.
Because maximal exposure occurred at 100 mg/kg, this dose is considered the NOAEL for 1 day of dosing.

[6] = 28-day oral toxicity study in rats with 14-day recovery; assay type: in vivo
Experimental: as §2
Exposures were maximal at 120 mg/kg/day.

[7] = tested on: SY5Y xenografts; test: Tumor growth inhibition in subcutaneous SY5Y neuroblastoma xenografts; assay type: in vivo, athymic nude mice
Experimental: Experimental Design. SY5Y cells are derived from a human neuroblastoma, a childhood tumor arising in neural crest cells. SY5Y cells (1×10^7 cells/mouse) were implanted subcutaneously in male athymic nude mice.
Tumor size was measured by calipers at periodic intervals. When the average tumor size in a group exceeded 2000 mm^3, the mice in the group were sacrificed and excised tumors were assayed for intratumoral VEGF concentration as described in Section 9.1.1.1.

[8] = tested on: HT1080 cells; test: Anchorage-independent colony formation of HT1080 cells in agar; assay type: cell-based, human; conditions: 10 and 50 nM, day 18; not statistically significant
Experimental: Experimental Design. HT1080 cells growing in monolayer were trypsinized, counted and suspended in a 0.35% agar noble/1× complete DMEM solution at 37° C. at a concentration of 2,500 cells/mL. One ml of this solution was layered over a semisolid base consisting of 0.5 mL of 0.75% agar noble/1× complete DMEM in a six well tissue culture plate. […] Tissue culture plates were then returned to the incubator and colonies were allowed to form. […] On day 18 the vehicle-treated wells had colonies of sufficient size to count (>50 cells/colony). At this time, for increased visualization, 1.5 mL of a 2× working volume of (3-(4,5-Dimethylthiazol-2-yl)-2,5-diphenyltetrazolium bromide, a tetrazole) (MTT, Invitrogen, Cat #C35007) was added and the plates were returned to the incubator for 2 hours until colonies were stained by conversion of the MTT to purple formazan crystals. Colonies were then visually counted under a dissecting microscope.

[9] = tested on: HT1080 xenografts; test: Intratumoral microvessel density (CD31 immunostain) and tumor VEGF in HT1080 xenografts; assay type: in vivo, athymic nude mice; conditions: 5 mg/kg BID oral (given as racemic mixture), 10 days
Experimental: Experimental Design. HT1080 cells (5×10^6 cells/mouse) were implanted subcutaneously in male athymic nude mice.
At the end of treatment, the mice were sacrificed. Excised tumors were assayed by ELISA for VEGF content as described in Section 9.1.1.1, and were sectioned and immunostained with an anti murine CD31 antibody that is specific for endothelial cells.

[10] = tested on: HT1080 cells; test: Migration of cells out of re-plated HT1080 spheroids; assay type: cell-based, human
Experimental: Experimental Design. […] Pictures were then taken 48 hours to assess the migration and proliferation of the cells across the well's surface.

[11] = Oral pharmacokinetics in mice; assay type: in vivo
Experimental: as §1

[12] = Oral toxicokinetics in dogs; assay type: in vivo, beagle dogs
Experimental: as §1

COc1ccc(C2c3[nH]c4ccc(Cl)cc4c3CCN2C(=O)Oc2ccc(Cl)cc2)cc1 (racemic) [Compound #10]
oral bioavailability (in words) [1]: orally bioavailable
relationship between dose and plasma exposure (in words) ([1]; oral): bell-shaped curve
concentration from which an accumulation of cells in S phase can be observed [2]: ≥ 1 nM
cell cycle distribution, DNA content (in words) ([2]; Compound #10 0.3 nM to 100 nM, Compound 1205 10 nM): induced a redistribution of the cycling characteristics of the cell population
circulating serum VEGF-A levels (in words) ([3]; patients (FIG. 35A)): dose responsive reduction
circulating plasma VEGF-A levels (in words) ([3]; patients (FIG. 35B)): dose responsive reduction
dose at which maximal exposures occurred ([4]; dogs, 5, 15, and 30 mg/kg/dose BID, 28 days): 30 mg/kg/dose BID
clinical tolerability ([4]; dogs, low- and mid-dose levels (5, 15 mg/kg/dose BID), 28 days): clinically well tolerated
NOAEL for 28-days ([4]; dogs, oral capsules): 15 mg/kg/dose BID
dose at which maximal exposure occurred [5]: 100 mg/kg
mean PT and aPTT ([6]; 40 and 120 mg/kg/day, males but not females, 28-day study): reversible increases
NOAEL at 28 days ([6]; both sexes, Sprague Dawley, rat, in vivo, rats, oral gavage): 12 mg/kg/day
dose at which exposures were maximal ([6]; rats, 12, 40, and 120 mg/kg/day, 28 days): 120 mg/kg/day
Mean % Inhibition of Intratumoral VEGF vs Vehicle at Sacrifice ([7]; 50 mg/kg QD, 250 mg/kg per week (Table 18), oral 5 days per week): 96* %
mean tumor size (in words) ([7]; through 15-days of dosing): essentially eliminated any increase in mean tumor size
number of colonies formed (in words) [8]: modest trend toward a reduced number of colonies
tumor vessel count (CD31 immunostain) [9]: unchanged
migration of cells out of the spheroid (in words) ([10]; control spheroids re-plated in the presence of 50 nM): blocked in their ability to migrate out of the spheroid
proliferative and migratory capacity after exposure (in words) ([10]; three-week exposure at 50 nM, re-plated in the absence of the compound): does not reduce either the proliferative or the migratory capacity
oral bioavailability (in words) [11]: orally bioavailable
relationship between dose and plasma exposure (in words) ([11]; oral): bell-shaped curve
oral bioavailability (in words) [12]: orally bioavailable
relationship between dose and plasma exposure (in words) ([12]; oral): bell-shaped curve
